Assay results taken from US9096596B2 (Janssen Pharmaceutica NV, priority 2013, dated 2015).
Read-outs that look alike come from different tables or passages of the source.

Columns and labels:
P2X7 [1] = target: T1, P2X7 (Homo sapiens (Human), UniProt Q99572); assay: Radioligand binding, human P2X7-1321N1 cell membranes, tracer tritiated A-804598
Method: (§1) On the day of the experiment, cell membrane preparations were made according to standard published methods. […] The compound can be prepared as described in the literature. […] The assay was terminated by filtration (GF/B filters pre-soaked with 0.3% PEI) and washed with washing buffer (Tris-HCl 50 mM). The IC50 generated in the binding assay was corrected for tracer concentration and affinity of the tracer to derive at the affinity (Ki) of the test compounds.

P2X7 [2] = target: T1, P2X7; assay: Ca2+ flux (FLIPR) in 1321N1 cells expressing recombinant human P2X7 channel; type: cell-based; conditions: 250 μM BzATP, Calcium-4 dye
Method: 1321N1 cells expressing the recombinant human, rat or mouse P2X7 channel was cultured in HyQ DME/(HyClone/Dulbecco's Modified Eagle Medium) high glucose supplemented with 10% Fetal Bovine Serum (FBS) and appropriate selection marker. Cells were seeded at a density of 25000 cells/well (96-well clear bottom black walled plates) in 100 μl volume/well. On the day of the experiment, cell plates were washed with assay buffer, containing (in mM): 130 NaCl, 2 KCl, 1 CaCl2, 1 MgCl2, 10 HEPES, 5 glucose; pH 7.40 and 300 mOs. After the wash, cells were loaded with the Calcium-4 dye (Molecular Device) and incubated in the dark for 60 minutes. Test compounds were prepared at 250× the test concentration in neat DMSO. Intermediate 96-well compound plates were prepared by transferring 1.2 μL of the compound into 300 μL of assay buffer. A further 3× dilution occurred when transferring 50 μL/well of the compound plate to 100 μL/well in the cell plate. Cells were incubated with test compounds and dye for 30 minutes. […] The fluorescence change was measured 180 seconds after adding the agonist.

rat P2X7 [3] = target: T2, rat P2X7 (Rattus norvegicus (Rat), UniProt Q64663); assay: Radioligand binding, rat P2X7-1321N1 cell membranes, tracer tritiated A-804598
T2 sequence (Q64663 whole entry): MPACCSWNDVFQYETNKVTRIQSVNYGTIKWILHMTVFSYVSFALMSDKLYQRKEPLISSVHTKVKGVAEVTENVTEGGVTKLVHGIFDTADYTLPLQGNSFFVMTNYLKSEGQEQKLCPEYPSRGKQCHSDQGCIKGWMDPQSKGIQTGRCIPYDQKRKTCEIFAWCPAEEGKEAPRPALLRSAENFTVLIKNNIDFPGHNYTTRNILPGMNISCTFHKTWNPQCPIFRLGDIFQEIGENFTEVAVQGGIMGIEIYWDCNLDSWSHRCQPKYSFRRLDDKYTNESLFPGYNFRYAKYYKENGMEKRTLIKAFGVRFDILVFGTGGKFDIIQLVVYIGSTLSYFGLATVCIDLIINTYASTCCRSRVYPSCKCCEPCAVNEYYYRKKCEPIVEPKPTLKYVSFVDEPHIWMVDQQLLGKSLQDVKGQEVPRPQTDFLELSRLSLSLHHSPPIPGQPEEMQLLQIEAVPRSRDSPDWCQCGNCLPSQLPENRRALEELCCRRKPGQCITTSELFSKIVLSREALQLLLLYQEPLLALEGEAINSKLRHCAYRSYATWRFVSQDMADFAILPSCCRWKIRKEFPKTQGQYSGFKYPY
Method: as §1

rat P2X7 [4] = target: T2, rat P2X7; assay: Ca2+ flux (FLIPR) in 1321N1 cells expressing recombinant rat P2X7 channel; type: cell-based; conditions: 250 μM BzATP, Calcium-4 dye
Summary of the method: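 1321N1 cells stably expressing P2X7 were loaded with Calcium-4 dye for 60 min in HEPES-buffered saline (pH 7.40, 1 mM CaCl2, 1 mM MgCl2), then preincubated with test compounds for 30 min. Fluorescence change was read 180 s after agonist addition.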

P2X7 [5] = target: T1, P2X7; assay: P2X7 antagonism in human whole blood (IL-1β release, ELISA); type: cell-based; conditions: IL-1β release in human blood, LPS 30 ng/ml + Bz-ATP 1 mM
Method: Human blood was collected using a blood donor program. […] Cells were incubated for an additional 1.5 hours.

P2X7 [6] = target: T1, P2X7; assay: P2X7 antagonism in human PBMCs (IL-1β release, ELISA); type: cell-based; conditions: test compound 10 μM, IL-1β release in human PBMCs, LPS 30 ng/ml + Bz-ATP 0.5 mM, read-out: PBMC 10 μM (% control)
Method: Human blood was collected using a blood donor program. […] Cells were incubated for an additional 1.5 hours. […] In Table 2, when the data cell has been left blank, it is intended to mean that the compound was not tested in that assay.

[7] = human P2X7-1321N1 membranes, 1 hour at 4° C., IC50 corrected for tracer concentration and affinity
[8] = rat P2X7-1321N1 membranes, 1 hour at 4° C., IC50 corrected for tracer concentration and affinity

T1 sequence (Q99572 whole entry): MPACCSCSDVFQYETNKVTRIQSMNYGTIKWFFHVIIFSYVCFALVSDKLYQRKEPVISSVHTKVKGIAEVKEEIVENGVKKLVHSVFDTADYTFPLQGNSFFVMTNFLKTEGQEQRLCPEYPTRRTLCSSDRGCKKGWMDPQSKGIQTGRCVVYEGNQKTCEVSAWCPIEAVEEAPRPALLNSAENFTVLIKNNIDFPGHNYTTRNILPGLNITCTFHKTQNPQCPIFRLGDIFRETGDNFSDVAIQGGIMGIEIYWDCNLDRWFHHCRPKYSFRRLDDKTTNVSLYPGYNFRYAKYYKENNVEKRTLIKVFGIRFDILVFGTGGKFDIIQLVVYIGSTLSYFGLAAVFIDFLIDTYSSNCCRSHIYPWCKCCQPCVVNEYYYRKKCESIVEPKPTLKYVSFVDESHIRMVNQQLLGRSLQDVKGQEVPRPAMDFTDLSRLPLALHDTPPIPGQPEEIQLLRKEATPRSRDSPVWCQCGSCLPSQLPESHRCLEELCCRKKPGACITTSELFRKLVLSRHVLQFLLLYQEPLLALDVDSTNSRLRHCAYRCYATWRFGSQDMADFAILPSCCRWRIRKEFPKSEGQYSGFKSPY

With `Cc1nc2c(c(-c3ccn(CCF)n3)n1)C[C@@H](C)N(C(=O)c1cccc(C(F)(F)F)c1Cl)C2` (single isomer, unassigned) [Example 124, (R*)-(2-chloro-3-(trifluoromethyl)phenyl)(4-(1-(2-fluoroethyl)-1H-pyrazol-3-yl)-2,6-dimethyl-5,6-dihydropyrido[3,4-d]pyrimidin-7(8H)-yl)methanone] the Ki (P2X7 [1]) was 0.0251 µM, the IC50 (P2X7 [2]) was 0.031 µM and the Ki (rat P2X7 [3]) was 0.0035 µM. The IC50 (rat P2X7 [4]) was 0.0129 µM.

`COCCn1ccc(-c2nc(C)nc3c2C[C@@H](C)N(C(=O)c2cccc(C(F)(F)F)c2Cl)C3)n1` (single isomer, unassigned) [Example 128, (R*)-(2-chloro-3-(trifluoromethyl)phenyl)(4-(1-(2-methoxyethyl)-1H-pyrazol-3-yl)-2,6-dimethyl-5,6-dihydropyrido[3,4-d]pyrimidin-7(8H)-yl)methanone] gave a Ki (P2X7 [1]) of 0.0316 µM, an IC50 (P2X7 [2]) of 0.0296 µM and a Ki (rat P2X7 [3]) of 0.003 µM. For the same molecule, the IC50 (rat P2X7 [4]) was 0.0097 µM.

For `O=C(c1cccc(Cl)c1Cl)N1CCc2c(ncnc2-c2ccccc2)C1` [Example 2, 7-[(2,3-Dichlorophenyl)carbonyl]-4-phenyl-5,6,7,8-tetrahydropyrido[3,4-d]pyrimidine], the Ki (P2X7 [1]; [7]) was 0.0955 µM, the IC50 (P2X7 [2]) was 0.0365 µM and the Ki (rat P2X7 [3]; [8]) was 0.251 µM. For the same molecule, the IC50 (rat P2X7 [4]) was 3.24 µM.

Work on `O=C(c1cccc(Cl)c1Cl)N1CCc2c(ncnc2-c2ccn[nH]2)C1` [Example 7, 7-[(2,3-Dichlorophenyl)carbonyl]-4-(1H-pyrazol-5-yl)-5,6,7,8-tetrahydropyrido[3,4-d]pyrimidine] yielded a Ki (P2X7 [1]; [7]) of 0.0154 µM, an IC50 (P2X7 [5]) of 0.56 µM and an IC50 (P2X7 [2]) of 0.0207 µM. For the same molecule, the Ki (rat P2X7 [3]; [8]) was 0.0145 µM and the IC50 (rat P2X7 [4]) was 0.489 µM.

`O=C(c1cccc(Cl)c1Cl)N1CCc2c(ncnc2-c2ccccn2)C1` [Example 11, 7-[(2,3-Dichlorophenyl)carbonyl]-4-pyridin-2-yl-5,6,7,8-tetrahydropyrido[3,4-d]pyrimidine] gave a Ki (P2X7 [1]; [7]) of 0.0372 µM, an IC50 (P2X7 [2]) of 0.416 µM and a Ki (rat P2X7 [3]; [8]) of 0.0617 µM. It also gave an IC50 (rat P2X7 [4]) of over 10 µM.

For `O=C(c1cccc(C(F)(F)F)c1Cl)N1CCc2c(ncnc2-c2ccccn2)C1` [Example 12, 7-{[2-Chloro-3-(trifluoromethyl)phenyl]carbonyl}-4-pyridin-2-yl-5,6,7,8-tetrahydropyrido[3,4-d]pyrimidine], the Ki (P2X7 [1]; [7]) was 0.0589 µM, the IC50 (P2X7 [5]) was 2 µM and the IC50 (P2X7 [2]) was 0.0281 µM. For the same molecule, the Ki (rat P2X7 [3]; [8]) was 0.0575 µM and the IC50 (rat P2X7 [4]) was 5.97 µM.

With `O=C(c1cccc(Cl)c1Cl)N1CCc2c(ncnc2-c2cnccn2)C1` [Example 14, 7-[(2,3-Dichlorophenyl)carbonyl]-4-pyrazin-2-yl-5,6,7,8-tetrahydropyrido[3,4-d]pyrimidine] the Ki (P2X7 [1]; [7]) was 0.0631 µM, the IC50 (P2X7 [2]) was 0.0251 µM and the Ki (rat P2X7 [3]; [8]) was 0.0316 µM. For the same molecule, the IC50 (rat P2X7 [4]) was 3.16 µM.

In the case of `Cc1c(C(=O)N2CCc3c(ncnc3-c3cnccn3)C2)cccc1C(F)(F)F` [Example 15, 7-{[2-Methyl-3-(trifluoromethyl)phenyl]carbonyl}-4-pyrazin-2-yl-5,6,7,8-tetrahydropyrido[3,4-d]pyrimidine], the Ki (P2X7 [1]; [7]) is reported as 0.0794 µM, the IC50 (P2X7 [2]) is reported as 0.0316 µM and the Ki (rat P2X7 [3]; [8]) is reported as 0.0501 µM. The IC50 (rat P2X7 [4]) was 6.31 µM.

Molecule `O=C(c1cccc(C(F)(F)F)c1Cl)N1CCc2c(ncnc2-c2ccn[nH]2)C1` [Example 18, (4-(1H-pyrazol-5-yl)-5,6-dihydropyrido[3,4-d]pyrimidin-7(8H)-yl)(2-chloro-3-(trifluoromethyl)phenyl)methanone] has a Ki (P2X7 [1]; [7]) of 0.02 µM, an IC50 (P2X7 [2]) of 0.0103 µM and a Ki (rat P2X7 [3]; [8]) of 0.005 µM. For the same molecule, the IC50 (rat P2X7 [4]) was 0.0762 µM.

For `Cn1ccc(-c2ncnc3c2CCN(C(=O)c2cccc(C(F)(F)F)c2Cl)C3)n1` [Example 19, 7-{[2-Chloro-3-(trifluoromethyl)phenyl]carbonyl}-4-(1-methyl-1H-pyrazol-3-yl)-5,6,7,8-tetrahydropyrido[3,4-d]pyrimidine], the Ki (P2X7 [1]; [7]) was 0.0251 µM, the IC50 (P2X7 [5]) was 0.63 µM and the IC50 (P2X7 [2]) was 0.0261 µM. The IC50 (rat P2X7 [4]) was 0.0099 µM and the remaining activity at 10 µM (P2X7 [6]) was 13.8%.

For `O=C(c1cccc(Cl)c1Cl)N1CCc2c(ncnc2-n2nccn2)C1` [Example 23, 7-[(2,3-Dichlorophenyl)carbonyl]-4-(2H-1,2,3-triazol-2-yl)-5,6,7,8-tetrahydropyrido[3,4-d]pyrimidine], the IC50 (P2X7 [5]) was 1.12 µM.
